Results from patent publication US12617756B2 (ABIVAX, priority 2019, dated 2026).

What follows are compounds tested on RSV A2 (assay: Screening for RSV inhibition using Viral ToxGlo assay (cytopathic effect inhibition in HEp-2 cells)). Conditions: human respiratory syncytial virus; RSV A2 in HEp-2 cells, MOI 0.5, 72h p.i., cytopathic effect inhibition relative to virus control, Viral ToxGlo luminescence.
Assay type: cell-based, Respiratory Syncytial Virus (RSV)
Protocol: Protocol for Screening Antiviral Compounds for RSV Inhibition and Cytotoxicity Using Viral ToxGlo Assay
HEp-2 cells were maintained in Eagle's minimum essential medium (EMEM) with Earle's BSS adjusted to contain 2 mM L-glutamine, 10% fetal bovine serum, 100 U/ml penicillin and 100 µg/ml streptomycin. For the purposes of the screening assay they were grown to 90% confluency, trypsinized and recovered. The trypsin was neutralised with cell culture media and cells were centrifuged at 150×g for 5 minutes before discarding the supernatant and resuspending cell pellet in assay media (EMEM with Earle's BSS adjusted to contain 2 mM L-glutamine, 2% fetal bovine serum and 100 U/ml penicillin and 100 µg/ml streptomycin). The cells were seeded into white clear-bottomed cell culture plates at a density of 1.5×10^4 cells/well in 50 μl and 4×10^3 cells/well in 25 μl for 96 well plates and 384 well plates respectively. For the media/background control column assay media only was added. Cell plates were placed in a humid chamber and incubated overnight at 37° C./5% CO2. After overnight incubation cells were checked for confluency and healthy appearance.
Test articles were made up at 10× test concentration in a maximum DMSO concentration of 10% (final assay concentration maximal 1% DMSO) and added to the cell plates in volumes of […] for 96 well plates and 5 μl for 384 well plates. For cell control and virus control wells the test article solvent only was added. Virus or assay media for cytotoxicity test wells and media/cell control wells was added immediately after test articles at an MOI of […] for 96 and 384 well plates respectively. Virus suspension was prepared by thawing RSV A2 frozen stocks and diluting to the required concentration of plaque forming units in assay media on ice.
Cell plates were further incubated inside a humid chamber for 72h p.i at 37° C./5% CO2. After the incubation period cells were observed under the microscope to check for characteristic cytopathic effect in virus control wells and healthy cells in the cell control wells. After plates were adjusted to room temperature 20/40 μl Viral ToxGlo (Promega) was added to each well of the 384/96 well cell plates. Plates were incubated at room temperature, protected from light on a plate rocker for 20 minutes before measuring the luminescence on a spectrophotometer (Biotek Synergy HTX).
`CC(C)C1(NC(=O)c2cccc(Nc3ccc(C(=O)N=C4NCCN4)cc3C3CC3)c2)CC1` [Compound 7] was tested, and the EC50 was 1.6 nM. `CC1(NC(=O)c2cccc(Nc3ccc(C(=O)N=C4NCCN4)cc3C3CC3)c2)CC1` [Compound 14, 3-cyclopropyl-N-[(2Z)-imidazolidin-2-ylidene]-4-({3-[(1-methylcyclopropyl)carbamoyl]phenyl}amino)benzamide] gave an EC50 of 14.4 nM. With `O=C(N=C1NCCN1)c1ccc(Nc2cccc(C(=O)N3CCOCC3)c2Cl)c(C2CCOC2)c1` (stereo not drawn) [Compound 15, 4-{[2-chloro-3-(morpholine-4-carbonyl)phenyl]amino}-N-[(2E)-imidazolidin-2-ylidene]-3-(oxolan-3-yl)benzamide] the EC50 was 14.9 nM. `O=C(N=C1NCCN1)c1ccc(Nc2cccc(C(=O)N3CCOCC3)c2Cl)c(C(F)(F)F)c1` [Compound 16, 4-{[2-chloro-3-(morpholine-4-carbonyl)phenyl]amino}-N-[(2E)-imidazolidin-2-ylidene]-3-(trifluoromethyl)benzamide] was tested, and the EC50 was 15.6 nM. `CC(C)NC(=O)c1cccc(Nc2ccc(C(=O)/N=C3\NCCN3C)cc2C(C)(C)C)c1` [Compound 17, 3-tert-butyl-N-[(2E)-1-methylimidazolidin-2-ylidene]-4-({3-[(propan-2-yl)carbamoyl]phenyl}amino)benzamide] was tested, and the EC50 was 19.8 nM. `CC1(NC(=O)c2cccc(Nc3ccc(C(=O)N=C4NCCN4)cc3C3CCC3)c2)CC1` [Compound 18, 3-cyclobutyl-N-[(2Z)-imidazolidin-2-ylidene]-4-({3-[(1-methylcyclopropyl)carbamoyl]phenyl}amino)benzamide] showed an EC50 of 21.2 nM. In the case of `CC(C)NC(=O)c1cccc(Nc2ccc(C(=O)N=C3NCCN3)cc2C(C)(C)C)c1` [Compound 19, 3-tert-butyl-N-[(2E)-imidazolidin-2-ylidene]-4-({3-[(propan-2-yl)carbamoyl]phenyl}amino)benzamide], the EC50 is reported as 22.8 nM. Work on `CC(C)(C)C(=O)Nc1cccc(Nc2ccc(C(=O)N=C3NCCN3)cc2C(C)(C)C)c1` [Compound 20, 3-tert-butyl-4-{[3-(2,2-dimethylpropanamido)phenyl]amino}-N-[(2Z)-imidazolidin-2-ylidene]benzamide] yielded an EC50 of 23.5 nM. `CC1(C(=O)Nc2cccc(Nc3ccc(C(=O)N=C4NCCN4)cc3C3CC3)c2)CC1` [Compound 21, 3-cyclopropyl-N-[(2Z)-imidazolidin-2-ylidene]-4-{[3-(1-methylcyclopropaneamido)phenyl]amino}benzamide] showed an EC50 of 25.8 nM. Work on `O=C(N=C1NCCN1)c1ccc(Nc2cccc(OCCCC3CCCCC3)c2)c(C2CC2)c1` [Compound 22, 4-{[3-(3-cyclohexylpropoxy)phenyl]amino}-3-cyclopropyl-N-[(2E)-imidazolidin-2-ylidene]benzamide] yielded an EC50 of 26 nM. Compound `O=C(N=C1NCCN1)c1ccc(Nc2cccc(OCC3COCCO3)c2Cl)c(C2CC2)c1` (stereo not drawn) [Compound 23, 4-({2-chloro-3-[(1,4-dioxan-2-yl)methoxy]phenyl}amino)-3-cyclopropyl-N-[(2E)-imidazolidin-2-ylidene]benzamide] has an EC50 of 30.3 nM. With `CN1CCN/C1=N\C(=O)c1ccc(Nc2cccc(C(=O)NC3(C)CC3)c2)c(C(C)(C)C)c1` [Compound 24, 3-tert-butyl-4-({3-[(1-methylcyclopropyl)carbamoyl]phenyl}amino)-N-[(2E)-1-methylimidazolidin-2-ylidene]benzamide] the EC50 was 31.7 nM. For `O=C(N=C1NCCN1)c1ccc(Nc2cccc(C(=O)NC3CC3)c2Cl)c(C2CC2)c1` [Compound 25, 4-{[2-chloro-3-(cyclopropylcarbamoyl)phenyl]amino}-3-cyclopropyl-N-[(2Z)-imidazolidin-2-ylidene]benzamide], the EC50 was 32.2 nM. For `CC(C)C(=O)Nc1cccc(Nc2ccc(C(=O)N=C3NCCN3)cc2C2CC2)c1` [Compound 26, 3-cyclopropyl-N-[(2E)-imidazolidin-2-ylidene]-4-{[3-(2-methylpropanamido)phenyl]amino}benzamide], the EC50 was 34.4 nM. With `COc1c(Nc2ccc(C(=O)N=C3NCCN3)cc2C2CC2)cccc1C(=O)NCCC(C)C` [Compound 27, 3-cyclopropyl-N-[(2Z)-imidazolidin-2-ylidene]-4-({2-methoxy-3-[(3-methylbutyl)carbamoyl]phenyl}amino)benzamide] the EC50 was 41.4 nM. Compound `O=C(N=C1NCCN1)c1ccc(Nc2cccc(C(=O)NC3CCOC3)c2Cl)c(C2CC2)c1` (stereo not drawn) [Compound 28, 4-({2-chloro-3-[(oxolan-3-yl)carbamoyl]phenyl}amino)-3-cyclopropyl-N-[(2Z)-imidazolidin-2-ylidene]benzamide] has an EC50 of 42.1 nM. In the case of `C=C(C)c1cc(C(=O)N=C2NCCN2)ccc1Nc1cccc(C(=O)NCCC(C)C)c1` [Compound 29, N-[(2E)-imidazolidin-2-ylidene]-4-({3-[(3-methylbutyl)carbamoyl]phenyl}amino)-3-(prop-1-en-2-yl)benzamide], the EC50 is reported as 42.3 nM. With `CC(C)(O)c1cc(C(=O)N=C2NCCN2)ccc1Nc1cccc(C(=O)N2CCOCC2)c1C(F)(F)F` [Compound 30, 3-(2-hydroxypropan-2-yl)-N-[(2E)-imidazolidin-2-ylidene]-4-{[3-(morpholine-4-carbonyl)-2-(trifluoromethyl)phenyl]amino}benzamide] the EC50 was 42.7 nM. `CCC1(NC(=O)c2cccc(Nc3ccc(C(=O)N=C4NCCN4)cc3C3CC3)c2)CC1` [Compound 31, 3-cyclopropyl-4-({3-[(1-ethylcyclopropyl)carbamoyl]phenyl}amino)-N-[(2Z)-imidazolidin-2-ylidene]benzamide] gave an EC50 of 47.7 nM. Compound `CC(C)NC(=O)c1cc(F)cc(Nc2ccc(C(=O)N=C3NCCN3)cc2C2CC2)c1` [Compound 32, 3-cyclopropyl-4-({3-fluoro-5-[(propan-2-yl)carbamoyl]phenyl}amino)-N-[(2Z)-imidazolidin-2-ylidene]benzamide] has an EC50 of 49.2 nM. With `CC(C)(C)c1cc(C(=O)N=C2NCCN2)ccc1Nc1cccc(C(=O)NCCC2CCCOC2)c1` (stereo not drawn) [Compound 33, 3-tert-butyl-N-[(2E)-imidazolidin-2-ylidene]-4-[(3-{[2-(oxan-3-yl)ethyl]carbamoyl}phenyl)amino]benzamide] the EC50 was 50.2 nM. `CC(C)NC(=S)c1cccc(Nc2ccc(C(=O)N=C3NCCN3)cc2C2CC2)c1` [Compound 34, 3-cyclopropyl-N-[(2Z)-imidazolidin-2-ylidene]-4-({3-[(propan-2-yl)carbamothioyl]phenyl}amino)benzamide] showed an EC50 of 50.4 nM. For `CC(C)(C)c1cc(C(=O)N=C2NCCN2)ccc1Nc1cccc(C(=O)NCCC2CCCCO2)c1` (stereo not drawn) [Compound 35, 3-tert-butyl-N-[(2E)-imidazolidin-2-ylidene]-4-[(3-{[2-(oxan-2-yl)ethyl]carbamoyl}phenyl)amino]benzamide], the EC50 was 51.6 nM. Compound `CC(C)NC(=O)c1cccc(Nc2ccc(C(=O)/N=C3\NCCN3C)cc2C2CC2)c1` [Compound 36, 3-cyclopropyl-N-[(2E)-1-methylimidazolidin-2-ylidene]-4-({3-[(propan-2-yl)carbamoyl]phenyl}amino)benzamide] has an EC50 of 55.4 nM. With `CC(C)C(=O)Nc1cccc(Nc2ccc(C(=O)N=C3NCCN3)cc2C(C)(C)C)c1` [Compound 37, 3-tert-butyl-N-[(2E)-imidazolidin-2-ylidene]-4-{[3-(2-methylpropanamido)phenyl]amino}benzamide] the EC50 was 55.5 nM. In the case of `CC(C)N(C)C(=O)c1cccc(Nc2ccc(C(=O)N=C3NCCN3)cc2C(C)(C)C)c1` [Compound 38, 3-tert-butyl-N-[(2E)-imidazolidin-2-ylidene]-4-({3-[methyl(propan-2-yl)carbamoyl]phenyl}amino)benzamide], the EC50 is reported as 63.7 nM. `CC(C)(C)c1cc(C(=O)N=C2NCCN2)ccc1Nc1cccc(C(=O)NCCC2CCOCC2)c1` [Compound 39, 3-tert-butyl-N-[(2E)-imidazolidin-2-ylidene]-4-[(3-{[2-(oxan-4-yl)ethyl]carbamoyl}phenyl)amino]benzamide] showed an EC50 of 66.2 nM. Compound `Cc1c(C(=O)NCCC(C)C)ccnc1Nc1ccc(C(=O)N=C2NCCN2)cc1C1CC1` [Compound 40, 2-[(2-cyclopropyl-4-{[(2E)-imidazolidin-2-ylidene]carbamoyl}phenyl)amino]-3-methyl-N-(3-methylbutyl)pyridine-4-carboxamide] has an EC50 of 69.2 nM. `O=C1CN/C(=N\C(=O)c2ccc(Nc3cccc(OCCCC4CCCCC4)c3)c(C3CC3)c2)N1` [Compound 41, 4-{[3-(3-cyclohexylpropoxy)phenyl]amino}-3-cyclopropyl-N-[(2E)-4-oxoimidazolidin-2-ylidene]benzamide] gave an EC50 of 77.2 nM. `O=C(N=C1NCCN1)c1ccc(Nc2cccc(C(=O)N3CCOCC3)c2C2CC2)c(C(F)(F)F)c1` [Compound 42, 4-{[2-cyclopropyl-3-(morpholine-4-carbonyl)phenyl]amino}-N-[(2Z)-imidazolidin-2-ylidene]-3-(trifluoromethyl)benzamide] showed an EC50 of 78.4 nM.
